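Cultured in 96-well plates, cells were exposed to test compound for 48 hours across five concentrations. Abbreviation: GI50, concentration required for 50% inhibition of growth. TGI denotes the concentration required for complete inhibition of growth.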
Columns and labels:
Assay in all cases: DTP human tumour cell line panel, 48 h
HOP-62 NSCLC = test system: HOP-62 NSCLC
M14 melanoma = test system: M14 melanoma
MDA-MB-231 breast = test system: MDA-MB-231 breast
MDA-MB-435 = test system: MDA-MB-435
PC-3 prostate = test system: PC-3 prostate
SK-MEL-2 melanoma = test system: SK-MEL-2 melanoma
SN12C renal = test system: SN12C renal
SNB-75 CNS = test system: SNB-75 CNS
U251 CNS = test system: U251 CNS
UACC-257 melanoma = test system: UACC-257 melanoma

SMILES	GI50 (HOP-62 NSCLC) [µM]	TGI (HOP-62 NSCLC) [µM]	GI50 (M14 melanoma) [µM]	TGI (M14 melanoma) [µM]	GI50 (MDA-MB-231 breast) [µM]	TGI (MDA-MB-231 breast) [µM]	GI50 (MDA-MB-435) [µM]	TGI (MDA-MB-435) [µM]	GI50 (PC-3 prostate) [µM]	TGI (PC-3 prostate) [µM]	GI50 (SK-MEL-2 melanoma) [µM]	TGI (SK-MEL-2 melanoma) [µM]	GI50 (SN12C renal) [µM]	TGI (SN12C renal) [µM]	GI50 (SNB-75 CNS) [µM]	TGI (SNB-75 CNS) [µM]	GI50 (U251 CNS) [µM]	TGI (U251 CNS) [µM]	GI50 (UACC-257 melanoma) [µM]	TGI (UACC-257 melanoma) [µM]
Cn1c2ccccc2c2nnc(NNCc3ccccn3)nc21	0.324	4.64	0.246	0.738	1.03	18	0.555	14.5	0.594	16.5	5.17	33	0.462	14.6	1.16	14.1	0.446	14.4	0.641	11.1
COc1ccc2nccc(/C=C/c3ccnc4ccc(OC)cc34)c2c1	> 64.3	> 100	> 42	> 56	> 41.5	> 61.6	> 79.5	> 100	> 47.5	> 79.9	> 53.6	> 78.4	> 100	> 100	27.3	> 80.2	> 100	> 100	> 100	> 100
CCc1ncnc2cc(OCC3CO3)c(OC)cc12 (stereo not given)		38.7		23.8		60.9		21.7		> 100		12.4		16.7		53.7		> 100		52.9
Nc1ncnc2nn(C3OC(CO)C(O)C3O)nc12 (stereo not given)		46.5		> 62.8		> 25.2		> 90		> 67.6		17.5		> 68.5		54.1		> 81.6		> 87.1
CN(C)c1ccc(/C=N/NC(=O)c2cccc3ccccc23)c(Cl)c1	4.18	33.4	0.763	> 100	11.5	> 100			2.24	> 100	0.815	16.5	8.85	> 100	1.57	16.3	1.1	26.2	1.07	97.5
CN1CCN(c2ccc(C(=O)Nc3cccc(C#Cc4cccc5[nH]nc(N)c45)c3)cc2C(F)(F)F)CC1	0.792	2.19	0.636	1.34	0.568	1.35	0.61	1.19	0.953	7.92	1.7	5.49	1.2	4.54	0.624	1.62	0.707	1.95	1.93	4.53
C[C@]12CC[C@@H]3c4ccc(O)cc4CC[C@H]3[C@@H]1CC[C@@H]2NS(=O)(=O)c1ccc2ccccc2c1	5.87	20.2	3.2	10.5	1.81	4.68	2.31	5.89	2.75	17.3	2.75	7.94	1.94	4.25	2.1	12.6	3.6	15.4	3.3	17.6
O=C1c2c(c3c4ccccc4[nH]c3c3[nH]c4ccccc4c23)C(=O)N1Cc1ccccc1		14.8		10.9								10.6		5.6		8.01		6.34		13.3
Cc1cc(NS(=O)(=O)c2ccc(Nc3c4ccccc4nc4c(C(=O)Nc5ccc(S(=O)(=O)N=C(N)N)cc5)ccc(Cl)c34)cc2)no1		77.9		> 100										> 100		73.2		> 100		> 100
CC(=O)NC1=C(Sc2ccc(Cl)cc2)C(=O)c2ccccc2C1=O						10.2		4.56		11.7		16		16.2				14.9		17.3
COc1cc2c(cc1OC)[C@@H]([C@H](O)c1ccccc1)NCC2		> 100		> 100								> 100		> 100		> 100		> 100		> 100
CCN(CC)CCC(=O)/C=C/c1ccc(C)cc1		71.1		26.8										24.8		30.9		22.3		30.6
Cc1cc(NS(=O)(=O)c2ccc(NC(=O)COC(=O)c3cccc4c(=O)c5ccccc5[nH]c34)cc2)no1		> 100		> 100										> 100		> 100		> 100		> 100
CC12CC(Sc3ccccc3N1)c1ccccc1O2 (stereo not given)		38.4		37.6								25.4		36		53.3		26		27.8
Cc1ccc2c(CC(=O)O)cc(=O)oc2c1		> 100		> 100								> 100		> 100		> 100		> 100		
COC(=O)C(=O)C(CC(=O)Nc1cccc(C(F)(F)F)c1)C(=O)OC (stereo not given)		> 100		> 100								> 100		> 100		> 100		> 100		
COc1cc2ccc(CC(N)=O)cc2cc1OC		> 100		> 100								> 100		> 100		> 100		> 100		> 100
CCOP(=O)(CC(=O)C1=C(O)C(CCCCNC(=O)OC(C)(C)C)N(Cc2ccccc2)C1=O)OCC (stereo not given)		> 100		> 100								> 100		> 100		> 100		> 100		> 100
O=C(COc1ccc(-c2nc3cc(Cl)c(Cl)cc3[nH]2)cc1)N=Nc1c(O)[nH]c2ccccc12		> 40.8	4.17	> 100	1.09	3.43					3.84	24.1	3.85	> 100	1.61	3.68	0.564	2.1		
Clc1ccc(C2=NOC3C4CCC(C4)C23)cc1 (stereo not given)		> 100		> 100								> 100		> 100		> 100		> 100		> 100
